The target of data set [1] is Lucilia cuprina LcαE7 (esterase E3) gene product, malathion resistant allele, Trp to Leu at position 251 (Lucilia cuprina, UniProt Q25252, W251L). Put plainly: chlorfenvinphos hydrolysis, expressed malathion resistant LcαE7 product. The data set is classed as biochemical. The note with it: 75 μM CVP. On the procedure:
The malathion resistant Lcα7 full-length cDNA was cloned into the baculovirus transfer vector, Bacpac 6 (Clonetech) 3′ of the polyhedrin promoter. Transfections were conducted using a lipofection method with DOTAP (Boehringer Mannheim) as per King and Possee (The Baculovirus Expression System: A Laboratory Guide, Chapman & Hall, London, 1992). One μg of DNA of each of the resulting constructs together with 200 ng of Bacpac 6 baculovirus DNA (Clonetech), linearised by digestion with the restriction enzyme BSU 36I (Promega), was incubated in a solution of HBS (hepes buffered saline) containing 15% DOTAP (Boehringer Mannheim) in a polystyrene container at room temperature for 10 minutes. The solution was then used to transfect a single well of a six well tissue culture plate pre-seeded 2 hrs previously with 10^4 Sf9 (Spodoptera frugiperda) cells in 1.5 mls Grace's medium (King and Possee, The Baculovirus Expression System: A Laboratory Guide, Chapman & Hall, London, 1992). After 12 hours, the medium was replaced with 3 mls of Grace's medium containing 10% fetal calf serum. Construct plus DOTAP, linearised virus plus DOTAP and DOTAP only controls were conducted in parallel with transfections. The transfections were harvested 4–5 days after infection and the cells isolated by centrifugation at 500 g for 5 minutes. […]

In data set [2] the test system is Lucilia cuprina LcαE7 (esterase E3) gene product, OP-susceptible allele (LS2). The note with it: described in PCT/AU 95/00016; cited from earlier work.
For data set [3], the system named is malathion resistant strains of M. domestica, C. putoria and L. cuprina. Conditions: literature, cited from earlier work.
Data set [4] deals with MCE encoded by the malathion resistant allele of LcαE7. The data set is described as follows: Sensitivity of MCE activity to TPP (titration/preincubation of cell extract). It is filed as biochemical, L. cuprina.
Data set [5] addresses T1, Lucilia cuprina LcαE7 (esterase E3) gene product, malathion resistant allele (strain RM-8), Trp to Leu at position 251 (Lucilia cuprina, UniProt Q25252, W251L). Put plainly: sensitivity of MCE activity to TPP, expressed malathion resistant LcαE7 product. The data set is classed as biochemical. Conditions: TPP 8×10^−8M, preincubation 15, 30 or 45 minutes.
Data set [6] has as its system MCE activity associated with malathion resistance in M. domestica, C. putoria and L. cuprina. The note with it: literature; cited from earlier work.
For data set [7], the target named is T1, Lucilia cuprina LcαE7 (esterase E3) gene product, malathion resistant allele (strain RM-8), Trp to Leu at position 251. Put plainly: malathion hydrolysis (MCE activity), expressed malathion resistant LcαE7 product. It is filed as biochemical. Conditions: malathion 2.5-100 μM, 25° C., pH 7.0.
In data set [8] the test system is malathion carboxylesterase (MCE) purified from malathion resistant strains of L. cuprina. The note with it: cited from earlier work.
In data set [9] the target is Lucilia cuprina LcαE7 (esterase E3) gene product, malathion susceptible allele (strain LS2; clone Lc743), Trp at position 251 (Lucilia cuprina, UniProt Q25252). The data set is described as follows: malathion hydrolysis (MCE activity), expressed malathion susceptible LcαE7 product. The data set is classed as biochemical. Conditions: malathion 2.5-100 μM, 25° C., pH 7.0.

For data set [10], the system named is malathion carboxylesterase (MCE) purified from malathion resistant strains of L. cuprina. The note with it: purified MCE (Whyard and Walker 1994); cited from earlier work.
The test system is the same in data set [11]. Conditions: purified MCE (Whyard and Walker 1994); cited from earlier work. This is another data set of the same source.
Data set [12] relates to CC(=O)Oc1cccc2ccccc12. The data set is described as follows: α-naphthyl acetate hydrolysis, expressed malathion resistant LcαE7 product. It is filed as biochemical, Lucilia cuprina. The note with it: other: α-NA 6-200 μM, 25° C., pH 8.0. As to the method:
(§1) The malathion resistant Lcα7 full-length cDNA was cloned into the baculovirus transfer vector, Bacpac 6 (Clonetech) 3′ of the polyhedrin promoter. Transfections were conducted using a lipofection method with DOTAP (Boehringer Mannheim) as per King and Possee (The Baculovirus Expression System: A Laboratory Guide, Chapman & Hall, London, 1992). One μg of DNA of each of the resulting constructs together with 200 ng of Bacpac 6 baculovirus DNA (Clonetech), linearised by digestion with the restriction enzyme BSU 36I (Promega), was incubated in a solution of HBS (hepes buffered saline) containing 15% DOTAP (Boehringer Mannheim) in a polystyrene container at room temperature for 10 minutes. […]
(§2) The initial rates of reactions between cell extracts containing the expressed products of the malathion resistant and susceptible LcαE7 alleles and α-naphthyl acetate (α-NA) were determined at 25° C. using a recording spectrophotometer and the method of Mastrapaolo and Yourno (Analytical Biochemistry 115: 188, 1981). 6–200 μM α-NA dissolved in 10 μl of 2-methoxyethanol was added to 0.1 M Tris-HCl pH 8.0 (980 μl) in a quartz cuvette. α-Naphthyl acetate is slowly hydrolysed in water so a background rate was recorded before starting the enzymic reaction by the addition of 10 μl of diluted cell extract. […]
(§3) Km and Vmax were calculated for both enzymes. […]

Data set [13] deals with CCCC(=O)Oc1cccc2ccccc12. The data set is described as follows: α-naphthyl butyrate hydrolysis, expressed malathion resistant LcαE7 product. It is filed as biochemical, Lucilia cuprina. Conditions: other: α-NB 6-200 μM, 25° C., pH 8.0. On the procedure: as §1, §2, §3
For data set [14], the system named is CCCC(=O)Oc1cccc2ccccc12. Put plainly: α-naphthyl butyrate hydrolysis, expressed malathion susceptible LcαE7 product. It is filed as biochemical, Lucilia cuprina. Conditions: other: α-NB 6-200 μM, 25° C., pH 8.0. As to the method: (§4) The in vitro expression of the OP susceptible allele of LcαE7 (clone Lc743) is described in patent application PCT/AU 95/00016 (“Enzyme based bioremediation”).
(§5) The initial rates of reactions between cell extracts containing the expressed products of the malathion resistant and susceptible LcαE7 alleles and α-naphthyl acetate (α-NA) were determined at 25° C. using a recording spectrophotometer and the method of Mastrapaolo and Yourno (Analytical Biochemistry 115: 188, 1981). 6–200 μM α-NA dissolved in 10 μl of 2-methoxyethanol was added to 0.1 M Tris-HCl pH 8.0 (980 μl) in a quartz cuvette. α-Naphthyl acetate is slowly hydrolysed in water so a background rate was recorded before starting the enzymic reaction by the addition of 10 μl of diluted cell extract. Control reactions were performed with extracts of both uninfected cells and Bacpac 6 infected cells.
As described above for α-NA hydrolysis except that 6–200 μM α-naphthyl butyrate (α-NB) was used instead of α-NA.
(§6) Km and Vmax were calculated for both enzymes. Kcat was then calculated from the Vmax and the molarity of the LcαE7 products in their respective cell extracts (determined above).

For data set [15], the system named is CC(=O)Oc1cccc2ccccc12. Put plainly: α-naphthyl acetate hydrolysis, expressed malathion susceptible LcαE7 product. The data set is classed as biochemical, Lucilia cuprina. Conditions: other: α-NA 6-200 μM, 25° C., pH 8.0. On the procedure:
as §4, §5, §6

The mark [16] stands for this setting: purified MCE (Whyard et al. 1994).

Read-outs that look alike come from different tables or passages of the source.

What is called Km is the concentration of substrate that gives half-maximal velocity. Usually kcat stands for the maximal rate divided by the concentration of active sites.

Chain of Lucilia cuprina LcαE7 (esterase E3) gene product, malathion susceptible allele (strain LS2; clone Lc743), Trp at position 251 (Q25252 entry or part of it): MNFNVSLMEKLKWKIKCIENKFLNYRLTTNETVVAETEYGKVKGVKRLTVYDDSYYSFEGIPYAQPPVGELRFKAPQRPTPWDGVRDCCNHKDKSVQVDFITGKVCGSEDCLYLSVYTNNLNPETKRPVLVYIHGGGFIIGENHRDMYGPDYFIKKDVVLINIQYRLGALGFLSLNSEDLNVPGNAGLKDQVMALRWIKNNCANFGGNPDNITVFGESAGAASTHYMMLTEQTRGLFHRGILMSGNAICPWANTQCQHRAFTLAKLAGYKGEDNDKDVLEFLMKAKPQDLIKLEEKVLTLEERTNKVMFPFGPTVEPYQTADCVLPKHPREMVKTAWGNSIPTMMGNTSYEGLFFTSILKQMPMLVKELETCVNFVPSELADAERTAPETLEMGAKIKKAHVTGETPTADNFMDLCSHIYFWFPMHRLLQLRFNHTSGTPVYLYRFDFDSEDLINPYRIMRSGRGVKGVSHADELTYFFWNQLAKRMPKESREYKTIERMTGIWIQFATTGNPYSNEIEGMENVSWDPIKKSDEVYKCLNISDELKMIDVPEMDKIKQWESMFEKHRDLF

Regarding `CCOP(=O)(OCC)OC(=CCl)c1ccc(Cl)cc1Cl` [CVP, chlorfenvinphos], the “turnover, fold less than that of the diazinon resistant (RM2-6) gene product” value in [1] was “approximately 50 fold”. Besides, the “turnover (hydrolytic activity)” value in data set [1] (30° C., pH 7.0) is given as “about 1.2 hour^−1”. For the same compound, in [2], the “CVP / diethyl OP hydrolytic activity” value is “undetectable”.

Regarding `O=P(Oc1ccccc1)(Oc1ccccc1)Oc1ccccc1` [TPP, triphenylphosphate], the synergism of malathion result in data set [3] (listed as triphenylphosphate) is listed as “best synergists”; in [3], “potent synergism of malathion by TPP”. The “turnover of TPP by MCE” value is on record as “not being turned over” in data set [4] (TPP 8×10^−8M preincubated 15, 30 or 45 minutes with cell extract) and “TPP was not being turned over by MCE” in data set [5]. In addition, the “concentration giving stoichiometric inhibition of MCE activity” value in data set [4] (expressed product of malathion resistant LcαE7 allele, substrate malathion) is “below 10^−7 M”. For the same compound, in data set [5], the “residual MCE activity at different preincubation times / completeness of inhibition by TPP” value was “no significant difference between the residual MCE activity at each of the preincubation times”. The “sensitivity of MCE activity to inhibition by TPP” value in [6] is “High sensitivity to inhibition by TPP”.

As to `CCOC(=O)CC(SP(=S)(OC)OC)C(=O)OCC` (stereo not drawn) [malathion, S-1,2-bis(ethoxycarbonyl)ethyl O,O-dimethyl phosphorodithioate], in data set [7], the Kcat was 0.717 ± 0.017 s⁻¹ and the Michaelis constant (Km) stood at 21 ± 1 µM. In addition, the Kcat in data set [8] (purified MCE (Whyard and Walker 1994)) was 46±2 per min. Further, in [8] (setting [16]), the Km was 11 ± 0.4 µM, the Vmax is recorded as 775±28 nmol malathion/min/mg and the “kcat (turnover number)” value was 0.767 s⁻¹. In data set [9], the Kcat stood at 1.17 ± 0.183 s⁻¹ and the Km amounted to 200 ± 30 µM.

On to `CC(=O)Oc1cccc2ccccc12` [α-naphthyl acetate], for which, in [10], the Kcat was 2063 per min and the Km was 167 ± 14 µM.

Take `CCCC(=O)Oc1cccc2ccccc12` [α-naphthyl butyrate]: in data set [11], the Kcat is 3700 per min and the Km is 39 ± 4 µM.

Consider “Lucilia cuprina LcαE7 (esterase E3) gene product, malathion resistant allele (strain RM-8), Trp to Leu at position 251 (Lucilia cuprina; W251L)”, for which the Km was determined as 150 ± 50 µM in the data set with CC(=O)Oc1cccc2ccccc12 [12] and 29 ± 4 µM with CCCC(=O)Oc1cccc2ccccc12 [13]. Also, the results for the kcat in the data set with CC(=O)Oc1cccc2ccccc12 [12] and in the data set on CCCC(=O)Oc1cccc2ccccc12 [13] were 37.8 ± 0.5 s⁻¹ and 150 ± 6.67 s⁻¹, respectively.

Regarding “Lucilia cuprina LcαE7 (esterase E3) gene product, malathion susceptible allele (strain LS2; clone Lc743), Trp at position 251 (Lucilia cuprina)”, in the data set with CCCC(=O)Oc1cccc2ccccc12 [14], the Km amounted to 20 ± 5 µM and the kcat came to 300 ± 33.3 s⁻¹. Besides, in the data set with CC(=O)Oc1cccc2ccccc12 [15], the Michaelis-Menten constant (Km) was 70 ± 5 µM and the kcat worked out at 183 ± 5 s⁻¹.

(Values after patent US7091025B2, “Malathion carboxylesterase” (priority 1995, dated 2006).)
